Values of other authors in patent EP0687181B1, “USE OF THYMOSIN FOR TREATING HEPATITIS C IN NON-RESPONDERS TO INTERFERON TREATMENT” (ALPHA 1 BIOMEDICALS, INC., priority 1993, dated 2001).
Where no end group is shown, it is not given here.

Assays:
influenza vaccine = details: drug recipients
HCV-related diseases = details: in vivo

Compound | toxicity (influenza vaccine) | effect on progression of HCV-related diseases (HCV-related diseases)
Ac-SDAAVDTSSEITTKDLKEKKEVVEEAEN [Thymosin α-1] | No clinical or biochemical toxicity | 
Nc1nc2c(ncn2COCCO)c(=O)[nH]1 [acyclovir] |  | ineffective
